For one data set, the system named is dog hepatocytes. The data set is described as follows: Metabolism and metabolite formation in hepatocytes. It counts as in vitro ADME, beagle dog. The conditions noted are these: beagle dog hepatocytes, 10 µM BPI-460372, 4 h incubation. From the text:
(§1) All the samples were duplicates.

The next data set relates to rat hepatocytes. Description: Metabolism and metabolite formation in hepatocytes. The conditions noted are these: SD rat hepatocytes, 10 µM BPI-460372, 4 h incubation. It counts as in vitro ADME, SD rat.
Excerpt: as §1

A further data set in a line: Stability in plasma. Particulars: human plasma, 37°C, 4 h. It counts as in vitro ADME.
A short description of another data set: In vivo clearance. The conditions noted are these: rats.
The next data set deals with TEAD palmitoylation. The arrangement: method as in doi:10.1158/1538-7445.AM2023-501. The conditions noted are these: cited from earlier work.
Details of data set [1]: method as in doi:10.1158/1538-7445.AM2024-7575. Particulars: cited from earlier work.
The target of data set [2] is T1, CYP1A2 (Homo sapiens, UniProt P05177).
T1 sequence (P05177 1-516): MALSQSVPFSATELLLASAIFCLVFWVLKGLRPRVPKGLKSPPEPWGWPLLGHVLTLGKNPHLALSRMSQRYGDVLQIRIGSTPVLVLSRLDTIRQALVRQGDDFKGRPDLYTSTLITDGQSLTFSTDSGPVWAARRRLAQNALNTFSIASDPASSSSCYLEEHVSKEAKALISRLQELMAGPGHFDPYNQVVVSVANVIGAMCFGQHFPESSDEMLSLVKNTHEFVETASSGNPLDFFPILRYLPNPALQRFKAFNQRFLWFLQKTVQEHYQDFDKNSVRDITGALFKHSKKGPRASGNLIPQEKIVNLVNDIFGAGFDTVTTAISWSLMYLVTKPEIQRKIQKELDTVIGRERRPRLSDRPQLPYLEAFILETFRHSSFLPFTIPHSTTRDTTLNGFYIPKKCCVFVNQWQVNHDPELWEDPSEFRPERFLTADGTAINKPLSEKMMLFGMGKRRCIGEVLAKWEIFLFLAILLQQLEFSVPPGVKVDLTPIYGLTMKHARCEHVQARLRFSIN
Description: Metabolic stability in recombinant human CYP isoenzymes. It counts as in vitro ADME. The arrangement: purchased Cypex Ltd. (Dundee, UK). The conditions noted are these: rCYP1A2 100 pmol P450/mL, 1 µM. How it is done: (§2) To identify the specific isoform that participates in the metabolism of BPI-460372, 1 µM BPI-460372 or positive control substrates were mixed with recombinant human CYP1A2, 2B6, 2C8, 2C9, 2C19, 2D6 or 3A4 (100 pmol P450·mL^-1), and the reaction was started by the addition of NADPH (1 mM final concentration) after 5-minute preincubation at 37°C. Aliquots were maintained in acetonitrile containing IS at different time points at 0 min, 5 min, 10 min, 20 min, 30 min, and 60 min. All incubations were performed in triplicate, and the concentration of the supernatant was determined by LC-MS/MS.
(§3) A substrate depletion approach was employed to determine the intrinsic clearance (CLint (rCYPj)) for each isoform. The contribution of each isoform was estimated using equations 2 and 3. CYPj abundance was evaluated as the abundance (CYPj) of each isoform in HLMs (pmol/mg protein).

The target of a further data set is CYP2C9 (Homo sapiens, UniProt P11712). The description is as above. It counts as in vitro ADME. The arrangement: purchased Cypex Ltd. (Dundee, UK). The conditions noted are these: rCYP2C9 100 pmol P450/mL, 1 µM. How it is done: as §2, §3
Sequence of CYP2C9 (P11712 whole entry): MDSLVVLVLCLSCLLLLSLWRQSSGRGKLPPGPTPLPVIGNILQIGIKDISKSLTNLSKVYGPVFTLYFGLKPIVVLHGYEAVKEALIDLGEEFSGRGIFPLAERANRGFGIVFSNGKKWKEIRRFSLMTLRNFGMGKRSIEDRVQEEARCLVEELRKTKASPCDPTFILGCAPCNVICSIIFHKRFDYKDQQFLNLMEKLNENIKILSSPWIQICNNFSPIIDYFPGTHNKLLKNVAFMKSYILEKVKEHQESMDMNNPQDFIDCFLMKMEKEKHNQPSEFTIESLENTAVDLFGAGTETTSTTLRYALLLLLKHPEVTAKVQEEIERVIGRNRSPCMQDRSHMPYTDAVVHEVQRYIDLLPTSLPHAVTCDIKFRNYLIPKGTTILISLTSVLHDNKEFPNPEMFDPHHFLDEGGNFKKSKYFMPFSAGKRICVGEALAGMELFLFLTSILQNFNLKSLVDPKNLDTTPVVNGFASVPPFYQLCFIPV
Data set [3] has as its target T2, CYP2D6 (Homo sapiens, UniProt P10635). Described as above. The arrangement: purchased Cypex Ltd. (Dundee, UK). The conditions noted are these: rCYP2D6 100 pmol P450/mL, 1 µM. It is filed as in vitro ADME. How it is done: as §2, §3
A further data set concerns human hepatocytes. Description: Metabolism and metabolite formation in hepatocytes. Particulars: human hepatocytes, 10 µM BPI-460372, 4 h incubation.
In data set [4] the target is T1, CYP1A2. Description: Metabolic stability in HLMs with or without specific CYP inhibitor (α-naphthoflavone). The arrangement: HLMs (1 mg protein·mL^-1); tissue BioIVT; host or cells: pooled human liver microsomes. Particulars: HLMs 1 mg protein/mL, substrate 1 μM, α-naphthoflavone 2 µM. It is filed as in vitro ADME. As to the method:
(§4) Before starting the experiments, the HLMs were thawed gently on ice. Metabolic stability incubations were performed at 37 °C. The incubations contained 100 mM phosphate buffer saline (PBS, pH 7.4), HLMs (1 mg protein·mL^-1), dimethyl sulfoxide (DMSO, blank control) or a selective CYP inhibitor, and BPI-460372 or positive control substrates (final incubation concentration, 1 μM). The incubation process started with the addition of NADPH (1 mM final concentration) after a 5-minute preincubation period. The chemical inhibitors were as follows: a-naphthoflavone (2 µM) for CYP1A2, ticlopidine (20 µM) for 2B6, quercetin (20 µM) for CYP2C8, sulfaphenazole (20 µM) for CYP2C9, ticlopidine (200 µM) for CYP2C19, quinidine (20 µM) for CYP2D6, and ketoconazole (20 µM) for CYP3A [9]. Aliquots were maintained in acetonitrile containing internal standard (IS) at various time points, such as 0 min, 5 min, 10 min, 20 min, 30 min, and 60 min. All incubations were performed in triplicate, and the concentration in the supernatant was determined by liquid chromatography-tandem mass spectrometry (LC-MS/MS).
(§5) The elimination rate constant k (min^-1) was obtained by linear regression from the natural logarithm of the […] of the parent drug and the incubation time. The inhibition rate was calculated using equation 1 [10]: […]

Data set [5] concerns the target T2, CYP2D6. Description: Metabolic stability in HLMs with or without specific CYP inhibitor (quinidine). Set-up: HLMs (1 mg protein·mL^-1); tissue BioIVT; host or cells: pooled human liver microsomes. It counts as in vitro ADME. The conditions noted are these: HLMs 1 mg protein/mL, substrate 1 μM, quinidine 20 µM. How it is done: as §4, §5
The subject of data set [6] is cysteine S-conjugate β-lyase. Description: Effect of cysteine S-conjugate β-lyase inhibitor AOAA on the metabolism of BPI-460372 (rat urine). The conditions noted are these: 20 mg/kg BPI-460372 + 100 mg/kg AOAA, once daily 21 days, urine 0-48 h on day 21.

T2 sequence (P10635 whole entry): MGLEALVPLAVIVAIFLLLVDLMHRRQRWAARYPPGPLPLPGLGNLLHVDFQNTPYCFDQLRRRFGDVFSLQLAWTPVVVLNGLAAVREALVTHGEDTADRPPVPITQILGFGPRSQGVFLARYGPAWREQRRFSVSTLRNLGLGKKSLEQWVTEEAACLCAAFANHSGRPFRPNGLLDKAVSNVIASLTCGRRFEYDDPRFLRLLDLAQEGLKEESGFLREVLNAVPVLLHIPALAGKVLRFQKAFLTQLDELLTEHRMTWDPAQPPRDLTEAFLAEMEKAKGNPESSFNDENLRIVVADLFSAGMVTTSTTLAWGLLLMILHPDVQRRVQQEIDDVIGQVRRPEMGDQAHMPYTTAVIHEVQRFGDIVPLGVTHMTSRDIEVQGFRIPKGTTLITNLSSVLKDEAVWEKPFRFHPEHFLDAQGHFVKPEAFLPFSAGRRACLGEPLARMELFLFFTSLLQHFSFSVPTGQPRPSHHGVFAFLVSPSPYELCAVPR
Description for human hepatocytes: 10 µM BPI-460372 was incubated in five species (human, cynomolgus monkey, beagle dog, SD rat, and ICR mouse) hepatocytes (1 × 10^6 cells·min^-1) at 37 °C for 4 h. 7-EC, as positive control, was incubated for 0 h and 4 h. For blank control, hepatocytes were inactivated by adding ice-cold acetonitrile, and then the BPI-460372 solution was added. All the samples were duplicates. Incubations were stopped using the same volume of cold acetonitrile. The tube was vortexed, and the duplicate samples were combined. Metabolite profiling and identification of BPI-460372 were conducted by using UHPLC-Orbitrap-HRMS. The samples of 7-EC were analyzed by LC-MS/MS and then semi-quantified using the peak area ratio of analyte versus IS.
For hepatocyte metabolite identification, the different metabolites of BPI-460372 were detected using an ACQUITY UPLC HSS T3 column (1.8 µm, 100 mm × 2.1 mm) and ACQUITY UPLC BEH C18 column (1.7 µm, 100 mm × 2.1 mm) for rat and dog metabolite identification. The mobile phase contained a mixture of 0.1% formic acid in water (A) and 0.1% formic acid in acetonitrile (B). The gradient elution program was as follows: 0.0-1.0 min, 5% B; 1.0-7.0 min, 5%-30% B; 7.0-12.0 min, 30%-80% B; 12.0-16.0 min, 80%-95% B; 16.0-18.0 min, 95% B; 18.0-18.1 min, 95%-5% B. Then, 5% B from 18.1 to 20.0 min was maintained for equilibration. The flow rate was set to 0.5 mL/min, and the column temperature was kept at 40°C. Eluted fractions were monitored by a UV detector at 314 nm.

In the case of `C=C(F)C(=O)N1CC(n2c(=O)n(-c3ccc(C(F)(F)F)cc3)c3nccnc32)C1` [BPI-460372], the “UV (314 nm) Peak Areas Relative Abundance” value in the data set with dog hepatocytes is on record as 48.28%; with rat hepatocytes, 70.87%; in the data set with human hepatocytes, 76.96%. Also, in the data set “Stability in plasma”, the Stability in plasma result is listed as “stable”. Moreover, the Clearance in vivo result in the data set “In vivo clearance” is “low clearance”. The “Inhibition of the palmitoylation of TEADs” value in the data set with TEAD palmitoylation is “inhibit the palmitoylation”. Also, the Preliminary efficacy entry in data set [1] (patients with malignant mesothelioma, lung adenocarcinoma, and lung squamous cell carcinoma) is given as “preliminary efficacy was observed”. Besides, the Safety profile entry in data set [1] (solid tumor patients) is given as “good safety profile”. Also, the Contribution at CYP1A2 [2] came to 13.1%; on CYP2C9 it was 6.3%; on CYP2D6 [3] it was 43.6%. For the same compound, the “Inhibition Rate” value on CYP1A2 [4] was 32.7%; at CYP2D6 [5] it was 17.0%. Also, in data set [6], the “Area ratio in rat urine, mean (%CV)” value was 1.48 (69).

These data come from paper PMC12376128, “In vitro and In Vivo Drug Metabolism Analysis of BPI-460372 - A Covalent TEAD1/3/4 Inhibitor” (Current Drug Metabolism, 2025).
